Patent US20250346585A1 (Alexion Pharmaceuticals, Inc., priority 2022, published 2025)
Like-named read-outs stand apart in the source and are kept apart here.

Molecular target: Human complement C1s enzyme (Homo sapiens (Human), UniProt P09871)
Assay: Human C1s enzyme assay
Type: biochemical
Conditions: read-out: IC50 (Stars)
Method in brief: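 Purified serum-derived human C1s (1.16 nM final) preincubated 5 min at room temperature with compound in 50 mM Tris, 1 M NaCl, pH 7.5. Z-L-Lys-SBzl thioester substrate and DTNB added (100 μM each, final); A405 read every 30 s for 30 min. IC50 from nonlinear regression of reaction rates against compound concentration.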

[1] = Human complement C1s enzyme 1.16 nM, substrate Z-L-Lys-SBzl 100 μM, assay of Example 3
[2] = Human C1s enzyme assay of Example 3

Sequence of Human complement C1s enzyme (P09871 438-688 limits assumed): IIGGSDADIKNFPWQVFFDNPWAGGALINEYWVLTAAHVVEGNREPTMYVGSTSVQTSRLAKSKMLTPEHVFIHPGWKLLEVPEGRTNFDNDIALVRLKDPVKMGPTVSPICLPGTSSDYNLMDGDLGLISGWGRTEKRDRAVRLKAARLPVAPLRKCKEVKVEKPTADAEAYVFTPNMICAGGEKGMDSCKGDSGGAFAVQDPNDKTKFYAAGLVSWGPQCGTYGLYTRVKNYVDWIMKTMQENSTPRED
Sequence of Human complement C1s enzyme (P09871 16-437 partner limits assumed): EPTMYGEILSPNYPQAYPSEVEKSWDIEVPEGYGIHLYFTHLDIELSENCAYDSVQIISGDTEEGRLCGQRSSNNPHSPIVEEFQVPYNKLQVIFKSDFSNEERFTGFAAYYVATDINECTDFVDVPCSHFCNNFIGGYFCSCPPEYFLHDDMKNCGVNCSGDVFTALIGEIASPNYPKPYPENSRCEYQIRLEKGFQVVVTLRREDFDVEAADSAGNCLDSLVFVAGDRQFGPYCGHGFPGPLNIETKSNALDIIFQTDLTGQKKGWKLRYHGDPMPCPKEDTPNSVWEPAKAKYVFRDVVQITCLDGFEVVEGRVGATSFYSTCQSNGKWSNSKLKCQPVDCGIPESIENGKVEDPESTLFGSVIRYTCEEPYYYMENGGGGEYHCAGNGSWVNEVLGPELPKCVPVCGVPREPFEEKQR

Question: With C[C@@H](NC(=O)[C@@H]1C[C@@H](Oc2ccccc2)CN1C(=O)CNC(=O)c1ccc2oc3ccccc3c2c1)c1cc(C(=N)N)cs1 [Compound 248, (2S,4R)—N—((R)-1-(4-carbamimidoylthiophen-2-yl)ethyl)-1-((dibenzo[b,d]furan-2-carbonyl)glycyl)-4-phenoxypyrrolidine-2-carboxamide] as the compound, how does the IC50 [1] read?
Answer: < 100 nM

Question: CC1c2ccccc2-c2ccc(C(=O)NCC(=O)N3C[C@H](OC(F)F)C[C@H]3C(=O)N[C@H](C)c3cc(C(=N)N)cs3)cc21 (stereo partly drawn) [Compound 357, (2S,4R)—N—((R)-1-(4-carbamimidoylthiophen-2-yl)ethyl)-4-(difluoromethoxy)-1-((9-methyl-9H-fluorene-2-carbonyl)glycyl)pyrrolidine-2-carboxamide] was tested. Which IC50 [1] did it give?
Answer: < 100 nM

Question: For N=C(N)c1csc(CNC(=O)[C@@H]2CC3(CN2C(=O)CNC(=O)c2ccc(-c4ccc(F)c(F)c4)cc2)OCCO3)c1 [Compound 207, (S)—N-((4-carbamimidoylthiophen-2-yl)methyl)-7-((3′,4′-difluoro-[1,1′-biphenyl]-4-carbonyl)glycyl)-1,4-dioxa-7-azaspiro[4.4]nonane-8-carboxamide], which IC50 [1] is on record?
Answer: < 100 nM

Question: With C[C@@H](NC(=O)[C@@H]1C[C@]2(C)C[C@@H]2N1C(=O)CNC(=O)c1ccc(Oc2ccccc2)cc1)c1cc(CC(=N)N)cs1 [Compound 276, (1S,3S,5S)—N—((R)-1-(4-(2-amino-2-iminoethyl)thiophen-2-yl)ethyl)-5-methyl-2-((4-phenoxybenzoyl)glycyl)-2-azabicyclo[3.1.0]hexane-3-carboxamide] as the compound, how does the IC50 [1] read?
Answer: < 100 nM

Question: COC[C@@]1(F)C[C@@H](C(=O)N[C@H](C)c2cc(C(=N)N)cs2)N(C(=O)CNC(=O)c2ccc3c(c2)Oc2ccccc2S3)C1 [Compound 373, (2S,4R)—N—((R)-1-(4-carbamimidoylthiophen-2-yl)ethyl)-4-fluoro-4-(methoxymethyl)-1-((phenoxathiine-3-carbonyl)glycyl)pyrrolidine-2-carboxamide] was tested. Which IC50 [1] did it give?
Answer: < 100 nM

Question: With C[C@@H](NC(=O)[C@@H]1CC2(CN1C(=O)CNC(=O)c1ccc(-c3ccc(Cl)cc3F)cc1)OCCO2)c1cc(C(=N)N)cs1 [Compound 174, (S)—N—((R)-1-(4-carbamimidoylthiophen-2-yl)ethyl)-7-((4′-chloro-2′-fluoro-[1,1′-biphenyl]-4-carbonyl)glycyl)-1,4-dioxa-7-azaspiro[4.4]nonane-8-carboxamide] as the compound, how does the IC50 [2] read?
Answer: < 100 nM

Question: Which IC50 [2] does the source give for COC[C@@]1(F)C[C@@H](C(=O)NCc2cc(C(=N)N)cs2)N(C(=O)CNC(=O)c2ccc3c(c2)-c2ccccc2C3(F)F)C1 [Compound 58, (2S,4R)—N-((4-carbamimidoylthiophen-2-yl)methyl)-1-((9,9-difluoro-9H-fluorene-3-carbonyl)glycyl)-4-fluoro-4-(methoxymethyl)pyrrolidine-2-carboxamide] here?
Answer: < 100 nM

Question: Which IC50 [1] does the source give for CC(C)S(=O)(=O)[C@@H]1C[C@@H](C(=O)N[C@H](C)c2cc(C(=N)N)cs2)N(C(=O)CNC(=O)c2ccc3c(c2)-c2ccccc2C3(F)F)C1 [Compound 280, (2S,4R)—N—((R)-1-(4-carbamimidoylthiophen-2-yl)ethyl)-1-((9,9-difluoro-9H-fluorene-3-carbonyl)glycyl)-4-(isopropylsulfonyl)pyrrolidine-2-carboxamide] here?
Answer: < 100 nM

Question: With C[C@@H](NC(=O)[C@@H]1CC2(CN1C(=O)CNC(=O)c1ccc3c(c1)oc1ccccc13)OCCO2)c1cc(C(=N)N)cs1 [Compound 279, (S)—N—((R)-1-(4-carbamimidoylthiophen-2-yl)ethyl)-7-((dibenzo[b,d]furan-3-carbonyl)glycyl)-1,4-dioxa-7-azaspiro[4.4]nonane-8-carboxamide] as the compound, how does the IC50 [1] read?
Answer: < 100 nM

Question: How did the IC50 [1] turn out when N=C(N)c1csc(CNC(=O)[C@@H]2CC3(CN2C(=O)CNC(=O)c2ccc(-c4ccc(C(=O)O)c(F)c4)cc2)OCCO3)c1 [Compound 213, (S)-4′-((2-(8-(((4-carbamimidoylthiophen-2-yl)methyl)carbamoyl)-1,4-dioxa-7-azaspiro[4.4]nonan-7-yl)-2-oxoethyl)carbamoyl)-3-fluoro-[1,1′-biphenyl]-4-carboxylic acid] was run?
Answer: > 1000 nM

Question: For C[C@@H](NC(=O)[C@@H]1C[C@@H](S(C)(=O)=O)CN1C(=O)CNC(=O)c1ccc2c(c1)-c1ccccc1C2OC(F)F)c1cc(C(=N)N)cs1 (stereo partly drawn) [Compound 392, (2S,4R)—N—((R)-1-(4-carbamimidoylthiophen-2-yl)ethyl)-1-((9-(difluoromethoxy)-9H-fluorene-3-carbonyl)glycyl)-4-(methylsulfonyl)pyrrolidine-2-carboxamide], which IC50 [1] is on record?
Answer: < 100 nM

Question: How did the IC50 [2] turn out when C[C@@H](NC(=O)[C@@H]1CC2(CN1C(=O)CNC(=O)c1ccc3oc4ccccc4c3c1)OCCO2)c1cc(C(=N)N)cs1 [Compound 137, (S)—N—((R)-1-(4-carbamimidoylthiophen-2-yl)ethyl)-7-((dibenzo[b,d]furan-2-carbonyl)glycyl)-1,4-dioxa-7-azaspiro[4.4]nonane-8-carboxamide] was run?
Answer: < 100 nM

Question: With N=C(N)c1csc(CNC(=O)[C@@H]2CC3(CN2C(=O)CN2Cc4cc(-c5ccc(F)cc5F)ccc4C2=O)OCCO3)c1 [Compound 228, (S)—N-((4-carbamimidoylthiophen-2-yl)methyl)-7-(2-(5-(2,4-difluorophenyl)-1-oxoisoindolin-2-yl)acetyl)-1,4-dioxa-7-azaspiro[4.4]nonane-8-carboxamide] as the compound, how does the IC50 [1] read?
Answer: < 100 nM

Question: C[C@@H](NC(=O)[C@@H]1C[C@@H](OC(F)F)CN1C(=O)CNC(=O)c1ccc(Oc2ccc(C#N)cc2)cc1)c1cc(C(=N)N)cs1 [Compound 49, (2S,4R)—N—((R)-1-(4-carbamimidoylthiophen-2-yl)ethyl)-1-((4-(4-cyanophenoxy)benzoyl)glycyl)-4-(difluoromethoxy)pyrrolidine-2-carboxamide] was tested. Which IC50 [2] did it give?
Answer: < 100 nM

Question: With C[C@@H](NC(=O)[C@@H]1CC2(CN1C(=O)CNC(=O)c1ccc3c(c1)-c1ccccc1C3(F)F)OCCO2)c1cc(/C(N)=N\C(=O)Oc2ccccc2)cs1 [Compound 149, phenyl ((E)-amino(5-((R)-1-((S)-7-((9,9-difluoro-9H-fluorene-3-carbonyl)glycyl)-1,4-dioxa-7-azaspiro[4.4]nonane-8-carboxamido)ethyl)thiophen-3-yl)methylene)carbamate] as the compound, how does the IC50 [2] read?
Answer: < 100 nM

Question: How did the IC50 [1] turn out when C=CC(=O)Nc1csc(CNC(=O)[C@@H]2CC3(CN2C(=O)CNC(=O)c2ccc(Oc4ccc(F)cc4)cc2)OCCO3)c1 [Compound 309, (S)-N-((4-acrylamidothiophen-2-yl)methyl)-7-((4-(4-fluorophenoxy)benzoyl)glycyl)-1,4-dioxa-7-azaspiro[4.4]nonane-8-carboxamide] was run?
Answer: > 1000 nM

Question: Which IC50 [2] does the source give for Cc1ccc(Oc2ccc(C(=O)NCC(=O)N3[C@H]4C[C@@]4(C)C[C@H]3C(=O)N[C@H](C)c3cc(C(=N)N)cs3)cc2C)cc1 [Compound 25, (1S,3S,5S)—N—((R)-1-(4-carbamimidoylthiophen-2-yl)ethyl)-5-methyl-2-((3-methyl-4-(p-tolyloxy)benzoyl)glycyl)-2-azabicyclo[3.1.]hexane-3-carboxamide] here?
Answer: < 100 nM

Question: Which IC50 [2] does the source give for Cc1cc(C(=O)NCC(=O)N2[C@H]3C[C@@]3(C)C[C@H]2C(=O)N[C@H](C)c2ccc(C(=N)N)s2)ccc1Oc1ccccc1 [Compound 31, (1S,3S,5S)—N—((R)-1-(5-carbamimidoylthiophen-2-yl)ethyl)-5-methyl-2-((3-methyl-4-phenoxybenzoyl)glycyl)-2-azabicyclo[3.1.0]hexane-3-carboxamide] here?
Answer: < 100 nM
